Activity calls are given as the source filed them. No cut-off for these calls is given here.
Legend:
MIA PaCa-2 [1] = assay: Induction of reactive oxygen species generation in human MIA PaCa-2 cells assessed as ROS level at 50 uM measured after 12 hrs by DCF-DA staining based flow cytometry (reference value: 461.5 +/- 57.3); assay type: functional
MIA PaCa-2 [2] = assay: Induction of apoptosis in human MIA PaCa-2 cells assessed as viable cells at 100 uM measured after 24 hrs by Annexin-V-FITC/propidium iodide staining based flow cytometry (reference value: 74%); assay type: functional; settings: read-out: Activity
MIA PaCa-2 [3] = assay: Induction of apoptosis in human MIA PaCa-2 cells assessed as necrotic cells at 100 uM measured after 48 hrs by Annexin-V-FITC/propidium iodide staining based flow cytometry (reference value: 11%); assay type: functional
[4] = Induction of GSH depletion in human Primary pancreatic epithelial cells assessed as cell population with low GSH level at 50 uM measured after 18 hrs by VB-48/propidium iodide staining based flow cytometry (reference value: 7%); assay type: toxicity
MIA PaCa-2 [5] = assay: Induction of apoptosis in human MIA PaCa-2 cells assessed as necrotic cells at 100 uM measured after 24 hrs by Annexin-V-FITC/propidium iodide staining based flow cytometry (reference value: 9%); assay type: functional
MIA PaCa-2 [6] = assay: Induction of apoptosis in human MIA PaCa-2 cells assessed as necrotic cells at 50 uM measured after 48 hrs by Annexin-V-FITC/propidium iodide staining based flow cytometry (reference value: 11%); assay type: functional
MIA PaCa-2 [7] = assay: Induction of apoptosis in human MIA PaCa-2 cells assessed as early apoptotic cells at 50 uM measured after 48 hrs by Annexin-V-FITC/propidium iodide staining based flow cytometry (reference value: 15%); assay type: functional
[8] = Induction of GSH depletion in human Primary pancreatic epithelial cells assessed as cell population with high GSH level at 50 uM measured after 18 hrs by VB-48/propidium iodide staining based flow cytometry (reference value: 93%); assay type: toxicity
MIA PaCa-2 [9] = assay: Induction of apoptosis in human MIA PaCa-2 cells assessed as late apoptotic cells at 50 uM measured after 48 hrs by Annexin-V-FITC/propidium iodide staining based flow cytometry (reference value: 3%); assay type: functional
MIA PaCa-2 [10] = assay: Induction of apoptosis in human MIA PaCa-2 cells assessed as viable cells at 100 uM measured after 48 hrs by Annexin-V-FITC/propidium iodide staining based flow cytometry (reference value: 71%); assay type: functional; settings: read-out: Activity
MIA PaCa-2 [11] = assay: Induction of apoptosis in human MIA PaCa-2 cells assessed as viable cells at 50 uM measured after 24 hrs by Annexin-V-FITC/propidium iodide staining based flow cytometry (reference value: 74%); assay type: functional; settings: read-out: Activity
MIA PaCa-2 [12] = assay: Induction of apoptosis in human MIA PaCa-2 cells assessed as late apoptotic cells at 50 uM measured after 24 hrs by Annexin-V-FITC/propidium iodide staining based flow cytometry (reference value: 4%); assay type: functional
MIA PaCa-2 [13] = assay: Induction of apoptosis in human MIA PaCa-2 cells assessed as necrotic cells at 50 uM measured after 24 hrs by Annexin-V-FITC/propidium iodide staining based flow cytometry (reference value: 9%); assay type: functional
MIA PaCa-2 [14] = assay: Inhibition of GST activity in human MIA PaCa-2 cells at 50 uM using CDNB as substrate measured after 6 hrs by spectrophotometric method; assay type: cell-based
MIA PaCa-2 [15] = assay: Induction of apoptosis in human MIA PaCa-2 cells assessed as early apoptotic cells at 50 uM measured after 24 hrs by Annexin-V-FITC/propidium iodide staining based flow cytometry (reference value: 13%); assay type: functional
MIA PaCa-2 [16] = assay: Induction of GSH depletion in human MIA PaCa-2 assessed as cell population with low GSH level at 50 uM measured after 18 hrs by VB-48/propidium iodide staining based flow cytometry (reference value: 5%); assay type: functional
MIA PaCa-2 [17] = assay: Induction of GSH depletion in human MIA PaCa-2 assessed as cell population with high GSH level at 50 uM measured after 18 hrs by VB-48/propidium iodide staining based flow cytometry (reference value: 95%); assay type: functional
MIA PaCa-2 [18] = assay: Induction of apoptosis in human MIA PaCa-2 cells assessed as late apoptotic cells at 100 uM measured after 24 hrs by Annexin-V-FITC/propidium iodide staining based flow cytometry (reference value: 4%); assay type: functional
MIA PaCa-2 [19] = assay: Induction of apoptosis in human MIA PaCa-2 cells assessed as early apoptotic cells at 100 uM measured after 24 hrs by Annexin-V-FITC/propidium iodide staining based flow cytometry (reference value: 13%); assay type: functional
MIA PaCa-2 [20] = assay: Induction of apoptosis in human MIA PaCa-2 cells assessed as viable cells at 50 uM measured after 48 hrs by Annexin-V-FITC/propidium iodide staining based flow cytometry (reference value: 71%); assay type: functional; settings: read-out: Activity
MIA PaCa-2 [21] = assay: Induction of apoptosis in human MIA PaCa-2 cells measured after 24 to 48 hrs by Annexin-V-FITC/propidium iodide staining based flow cytometry; assay type: functional, cell-based; settings: dose 50-100 µM, time 24-48 hrs
MIA PaCa-2 [22] = assay: Induction of apoptosis in human MIA PaCa-2 cells assessed as early apoptotic cells at 100 uM measured after 48 hrs by Annexin-V-FITC/propidium iodide staining based flow cytometry (reference value: 15%); assay type: functional
MIA PaCa-2 [23] = assay: Induction of reactive oxygen species generation in human MIA PaCa-2 cells at 50 uM measured after 12 hrs by DCF-DA staining based phase-contrast fluorescence microscopy; assay type: functional, cell-based
MIA PaCa-2 [24] = assay: Induction of apoptosis in human MIA PaCa-2 cells assessed as late apoptotic cells at 100 uM measured after 48 hrs by Annexin-V-FITC/propidium iodide staining based flow cytometry (reference value: 3%); assay type: functional

With `CC1=CC(=O)c2ccccc2C1=O` [MENADIONE] the Activity (MIA PaCa-2 [1]) was 1160.5.

With `O=C(/C=C/c1cn(-c2ccccc2)nc1-c1ccc(-c2ccccc2)cc1)c1ccc(O)cc1` the Activity (MIA PaCa-2 [1]) was 639.

In the case of `COc1ccc(-n2cc(/C=C/C(=O)c3cccc(OC)c3)c(-c3ccc(-c4ccccc4)cc3)n2)cc1`, the Activity (MIA PaCa-2 [1]) is reported as 720.5.

For `O=C(/C=C/c1cn(-c2ccccc2)nc1-c1ccc(-c2ccccc2)cc1)c1cc(Cl)ccc1O`, the Activity (MIA PaCa-2 [1]) was 661.

For `COc1ccc(C(=O)/C=C/c2cn(-c3ccc(OC)cc3)nc2-c2ccc(-c3ccccc3)cc2)cc1`, the viability at 100 µM (MIA PaCa-2 [2]) was 30%, the Activity (MIA PaCa-2 [3]) was 4% and the Activity [4] was 14%. The Activity (MIA PaCa-2 [5]) was 3%, the Activity (MIA PaCa-2 [6]) was 5% and the Activity (MIA PaCa-2 [7]) was 65%. For the same compound, the Activity [8] was 86%, the Activity (MIA PaCa-2 [1]) was 799.5 and the Activity (MIA PaCa-2 [9]) was 8%. For the same compound, the viability at 100 µM (MIA PaCa-2 [10]) was 11%, the viability at 50 µM (MIA PaCa-2 [11]) was 49% and the Activity (MIA PaCa-2 [12]) was 7%. The Activity (MIA PaCa-2 [13]) was 6%, the inhibition (MIA PaCa-2 [14]) was “Active” and the Activity (MIA PaCa-2 [15]) was 39%. The Activity (MIA PaCa-2 [16]) was 44%, the Activity (MIA PaCa-2 [17]) was 55% and the Activity (MIA PaCa-2 [18]) was 6%. For the same compound, the Activity (MIA PaCa-2 [19]) was 60%, the viability at 50 µM (MIA PaCa-2 [20]) was 22% and the Activity (MIA PaCa-2 [21]) was “Dose-dependent-effect”. The Activity (MIA PaCa-2 [22]) was 74%, the Activity (MIA PaCa-2 [23]) was “Active; Most Effective Among The Tested Compounds” and the Activity (MIA PaCa-2 [24]) was 11%.

With `COc1cccc(C(=O)/C=C/c2cn(-c3ccc(F)cc3)nc2-c2ccc(-c3ccccc3)cc2)c1` the Activity (MIA PaCa-2 [1]) was 675.

`COc1ccc(-n2cc(/C=C/C(=O)c3ccccc3OC)c(-c3ccc(-c4ccccc4)cc3)n2)cc1` showed an Activity (MIA PaCa-2 [1]) of 535.5.

`COc1ccc(C(=O)/C=C/c2cn(-c3ccc(F)cc3)nc2-c2ccc(-c3ccccc3)cc2)cc1OC` showed an Activity (MIA PaCa-2 [1]) of 534.5.

`COc1cccc(O)c1C(=O)/C=C/c1cn(-c2ccccc2)nc1-c1ccc(-c2ccccc2)cc1` showed an Activity (MIA PaCa-2 [1]) of 580.5.

Work on `O=C(/C=C/c1cn(-c2ccccc2)nc1-c1ccc(-c2ccccc2)cc1)c1cc(F)ccc1O` yielded an Activity (MIA PaCa-2 [1]) of 540.

Compound `COc1ccccc1C(=O)/C=C/c1cn(-c2ccccc2)nc1-c1ccc(-c2ccccc2)cc1` has an Activity (MIA PaCa-2 [1]) of 619.5.

`COc1ccc(C(=O)/C=C/c2cn(-c3ccc(F)cc3)nc2-c2ccc(-c3ccccc3)cc2)cc1` showed an Activity (MIA PaCa-2 [1]) of 529.5.

In the case of `COc1cccc(C(=O)/C=C/c2cn(-c3ccccc3)nc2-c2ccc(-c3ccccc3)cc2)c1`, the Activity (MIA PaCa-2 [1]) is reported as 680.

— ChEMBL document CHEMBL6114942, “(E)-3-(3-([1,1'-Biphenyl]-4-yl)-1-phenyl-1H-pyrazol-4-yl)-1-phenylprop-2-en-1-ones inducing reactive oxygen species generation through glutathione depletion” (Bioorg Med Chem Lett, 2025)
